# Test results reported in patent US5321030A, “Creatine analogs having antiviral activity” (priority 1991, dated 1994).
# Like-named read-outs stand apart in the source and are kept apart here.
# Tests used:
# [1] = tested on: Pseudorabies virus, Aujeszky strain; format: cell-based; conditions: similar assay
# [2] = tested on: herpes simplex virus type 2 (HSV-2), strain E194; assay: HSV-2 vaginitis in mice; format: in vivo, Swiss Webster female mice; conditions: for Mean Day to Death: virus infected
# [3] = tested on: Herpes Simplex Virus, Type 1, strain BW10168 (TK-); assay: microbe, parasite or virus in culture; format: cell-based; parameters: TI50 (CD50 ÷ ED50): unit not given beside the values; conditions: for Average CPE: virus controls 4.0
# HSV-1 = assay: Cytopathic effect (CPE) assay, HSV-1
# in vitro = conditions: monkey, vero cells
# in vivo = format: in vivo; conditions: for survival: mouse, in vivo, read-out: Survivors/Total (%); for Weight Change: uninfected, combined animal weights day 0 to day 15
# HSV-2 = assay: Cytopathic effect (CPE) assay, HSV-2; conditions: Human alphaherpesvirus 2, Vero, read-out: concentration required to inhibit cytopathogenicity by 60% or 70%
structure (smiles),measurement,setting,value
Nc1nc2c(ncn2COCCO)c(=O)[nH]1 [acyclovir],effect against Pseudorabies virus,[1],ineffective
same,average lesion score,"[2]; 25 mg/kg/day gavage, Grand Ave. (Days 3-14)",1.5 ± 0.6
same,average lesion score,"[2]; 25 mg/kg/day gavage, day 3",0.1 ± 0.2
same,average lesion score,"[2]; 25 mg/kg/day gavage, day 5",1.3 ± 1.5
same,average lesion score,"[2]; 25 mg/kg/day gavage, day 6",1.3 ± 1.3
same,average lesion score,"[2]; 25 mg/kg/day gavage, day 7",1.7 ± 1.6
same,average lesion score,"[2]; 25 mg/kg/day gavage, day 8",2.1 ± 1.5
same,average lesion score,"[2]; 25 mg/kg/day gavage, day 9",2.1 ± 1.4
same,average lesion score,"[2]; 25 mg/kg/day gavage, day 10",2.0 ± 1.2
same,average lesion score,"[2]; 25 mg/kg/day gavage, day 11",1.9 ± 1.3
same,average lesion score,"[2]; 25 mg/kg/day gavage, day 12",1.9 ± 1.4
same,average lesion score,"[2]; 25 mg/kg/day gavage, day 13",1.8 ± 1.5
same,average lesion score,"[2]; 25 mg/kg/day gavage, day 14",1.8 ± 1.5
same,average lesion score,"[2]; 50 mg/kg/day gavage, Grand Ave. (Days 3-14)",0.8 ± 0.3
same,average lesion score,"[2]; 50 mg/kg/day gavage, day 3",0.0 ± 0.0
same,average lesion score,"[2]; 50 mg/kg/day gavage, day 4",0.2 ± 0.3
same,average lesion score,"[2]; 50 mg/kg/day gavage, day 5",1.0 ± 1.8
same,average lesion score,"[2]; 50 mg/kg/day gavage, day 6",0.5 ± 0.7
same,average lesion score,"[2]; 50 mg/kg/day gavage, day 7",0.8 ± 1.2
same,average lesion score,"[2]; 50 mg/kg/day gavage, day 8",0.8 ± 0.9
same,average lesion score,"[2]; 50 mg/kg/day gavage, day 10",0.9 ± 1.2
same,average lesion score,"[2]; 50 mg/kg/day gavage, day 11",0.9 ± 1.2
same,average lesion score,"[2]; 50 mg/kg/day gavage, day 12",0.9 ± 1.2
same,average lesion score,"[2]; 50 mg/kg/day gavage, day 14",1.0 ± 1.3
same,average lesion score,"[2]; 100 mg/kg/day gavage, Grand Ave. (Days 3-14)",0.7 ± 0.4
same,average lesion score,"[2]; 100 mg/kg/day gavage, day 3",0.1 ± 0.2
same,average lesion score,"[2]; 100 mg/kg/day gavage, day 4",0.2 ± 0.3
same,average lesion score,"[2]; 100 mg/kg/day gavage, day 5",0.4 ± 0.4
same,average lesion score,"[2]; 100 mg/kg/day gavage, day 6",0.5 ± 0.5
same,average lesion score,"[2]; 100 mg/kg/day gavage, day 7",0.6 ± 0.7
same,average lesion score,"[2]; 100 mg/kg/day gavage, day 8",0.8 ± 0.9
same,average lesion score,"[2]; 100 mg/kg/day gavage, day 9",0.9 ± 0.9
same,average lesion score,"[2]; 100 mg/kg/day gavage, day 10",1.4 ± 1.2
same,average lesion score,"[2]; 100 mg/kg/day gavage, day 11",1.0 ± 1.3
same,average lesion score,"[2]; 100 mg/kg/day gavage, day 12",1.1 ± 1.3
same,average lesion score,"[2]; 100 mg/kg/day gavage, day 13",0.8 ± 0.9
same,average lesion score,"[2]; 100 mg/kg/day gavage, day 14",0.7 ± 0.9
same,average lesion score,"[2]; 200 mg/kg/day gavage, Grand Ave. (Days 3-14)",0.6 ± 0.3
same,average lesion score,"[2]; 200 mg/kg/day gavage, day 3",0.1 ± 0.2
same,average lesion score,"[2]; 200 mg/kg/day gavage, day 4",0.1 ± 0.2
same,average lesion score,"[2]; 200 mg/kg/day gavage, day 5",0.4 ± 0.5
same,average lesion score,"[2]; 200 mg/kg/day gavage, day 6",0.2 ± 0.3
same,average lesion score,"[2]; 200 mg/kg/day gavage, day 7",0.4 ± 0.5
same,average lesion score,"[2]; 200 mg/kg/day gavage, day 8",0.7 ± 0.6
same,average lesion score,"[2]; 200 mg/kg/day gavage, day 9",0.9 ± 0.7
same,average lesion score,"[2]; 200 mg/kg/day gavage, day 10",1.0 ± 0.6
same,average lesion score,"[2]; 200 mg/kg/day gavage, day 11",0.7 ± 0.7
same,average lesion score,"[2]; 200 mg/kg/day gavage, day 12",0.7 ± 0.7
same,average lesion score,"[2]; 200 mg/kg/day gavage, day 13",0.8 ± 0.7
same,average lesion score,"[2]; 200 mg/kg/day gavage, day 14",0.7 ± 0.7
same,activity in vaginitis model,[2]; 5% cream topical,very effective
same,average lesion score,"[2]; acyclovir 5% cream topical, Grand Ave. (Days 3-14)",0.3 ± 0.2
same,average lesion score,"[2]; acyclovir 5% cream topical, day 3",0.1 ± 0.1
same,average lesion score,"[2]; acyclovir 5% cream topical, day 4",0.1 ± 0.1
same,average lesion score,"[2]; acyclovir 5% cream topical, day 5",0.1 ± 0.2
same,average lesion score,"[2]; acyclovir 5% cream topical, day 6",0.2 ± 0.2
same,average lesion score,"[2]; acyclovir 5% cream topical, day 7",0.2 ± 0.2
same,average lesion score,"[2]; acyclovir 5% cream topical, day 8",0.2 ± 0.3
same,average lesion score,"[2]; acyclovir 5% cream topical, day 9",0.2 ± 0.2
same,average lesion score,"[2]; acyclovir 5% cream topical, day 10",0.6 ± 0.8
same,average lesion score,"[2]; acyclovir 5% cream topical, day 11",0.5 ± 0.7
same,average lesion score,"[2]; acyclovir 5% cream topical, day 12",0.3 ± 0.6
same,average lesion score,"[2]; acyclovir 5% cream topical, day 13",0.3 ± 0.6
same,average lesion score,"[2]; acyclovir 5% cream topical, day 14",0.3 ± 0.6
same,Mean Day to Death,[2]; ACV 25 mg/kg,10.4 ± 2.5
same,Mean Day to Death,[2]; ACV 50 mg/kg,11.3 ± 2.1
same,Mean Day to Death,[2]; ACV 100 mg/kg,12.0 ± 1.4
same,Mean Day to Death,[2]; ACV 200 mg/kg,11.3 ± 2.5
same,Average CPE,[3]; Acyclovir 1.0 μg/ml,4.0
same,Average CPE,[3]; Acyclovir 3.2 μg/ml,3.2
same,Average CPE,[3]; Acyclovir 10 μg/ml,1.5
same,Average CPE,[3]; Acyclovir 32 μg/ml,0.3
same,Average CPE,[3]; Acyclovir 100 μg/ml,0.5
same,Average CPE,[3]; Acyclovir 316 μg/ml,0.2
same,Average CPE,[3]; Acyclovir 1000 μg/ml,0
same,EC50,"[3]; Human alphaherpesvirus 1, Vero, read-out: ED50, Vero cells, Table 8",10.6 µg/mL
same,TI50 (CD50 ÷ ED50),"[3]; Vero cells, Table 8",> 94
same,EC65,"HSV-1; Human alphaherpesvirus 1, Vero, read-out: dose required to inhibit cytopathogenicity by 65%",0.97 µM
same,EC50,"HSV-1; Human alphaherpesvirus 1, read-out: in vitro ED50",7 µM
same,CC50,in vitro,> 1000 µg/mL
same,survival,in vivo; 25 mg/kg,100%
same,survival,in vivo; 50 mg/kg,100%
same,survival,in vivo; 100 mg/kg,100%
same,survival,in vivo; 200 mg/kg,100%
same,Weight Change,in vivo; ACV 25 mg/kg,2.8 g
same,Weight Change,in vivo; ACV 50 mg/kg,4.0 g
same,Weight Change,in vivo; ACV 100 mg/kg,3.5 g
same,Weight Change,in vivo; ACV 200 mg/kg,4.8 g
same,EC (60 or 70),HSV-2,1.95 µM
